These results are taken from patent US20260374766A1, “METHODS FOR TREATING CANCER” (Antares Therapeutics, Inc., priority 2022, published 2026).

Like-named read-outs stand apart in the source and are kept apart here.

Test [1] addresses T1, p53 Y220C mutant protein (amino acid residues 94-293) (Homo sapiens, UniProt P04637, Y220C).
T1 construct: p53 Y220C mutant protein (amino acid residues 94-293)
Kind of test: Surface Plasmon Resonance (SPR) assay, Kd_kinetic. The test is classed as binding. As to conditions: SPR, p53 Y220C, read-out: SPR P53 Y220C KD kinetic. The essentials:
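Surface plasmon resonance is run at 16 or 20 °C in 50 mM Tris pH 7.5 containing 100 mM NaCl, 1 mM DTT, 0.01% Brij35, 0.05% Tween-20 and 1% DMSO. Association and dissociation data are fitted to a 1:1 model.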

The target in test [2] is T1, p53 Y220C mutant protein (amino acid residues 94-293). The test can be described thus: Thermal Shift Assay (TSA), dTM. Conditions: for ΔTm at 10 µM: 10 uM compound; for ΔTm at 100 µM: 100 uM compound, read-out: TSA P53 Y220C dTM (100 uM). The test is classed as binding. The essentials:
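First, the mutant DNA-binding domain (5 μM) was preincubated 3 hours at 20 °C with compound at 10 μM or 100 μM. Next, the sample was heated from 30 °C to 50 °C at 0.03 °C/second in the presence of Sypro Orange. Finally, TM was obtained from a two-state Boltzmann fit.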

The target of another test is p53 Y220C (Homo sapiens, UniProt P04637, Y220C). Kind of test: Luciferase Reporter Assay (Luc), p53 response element, NClH1299 cells with inducible p53 Y220C. The test is classed as cell-based. Conditions: luciferase reporter, NClH1299 inducible p53 Y220C, 6 hour; for AC50: read-out: Luc P53 Y220C AC50. Summed up:
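Luciferase activity is measured directly after One-Glo addition and a 5-minute room-temperature shake. Before that, cells plated at 5,000 per well receive doxycycline at 0.5 ug/mL for 24 hours, followed by compound for 6 hours.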
For orientation: A reporter such as luciferase makes a cellular process visible.

Another test has as its system NUGC3 p53 Y220C. Kind of test: Cell Proliferation Assay (CellTiter-Glo, CTG), NUGC3 p53 Y220C. In kind it is cell-based. Conditions: Homo sapiens, NUGC-3, 120 h, CellTiter-Glo, 5 days. Summed up: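 Tet-One inducible p53 Y220C or R273H constructs were stably introduced into NCI-H1299 by lentiviral transduction; NUGC3 was used as is. Cells (250-500 per well) were exposed to compound for 5 days, then CellTiter-Glo was added for 10 min at room temperature and IC50 was calculated from luminescence.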

A further test relates to H1299 p53 Y220C. The test can be described thus: Cell Proliferation Assay (CellTiter-Glo, CTG), H1299 p53 Y220C (NClH1299-inducible p53 Y220C). In kind it is cell-based. Conditions: Homo sapiens, NCI-H1299, 120 h, CellTiter-Glo, 5 days. Summed up: (§1)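 Cells seeded at 250-500 per well and exposed to compound for 5 days. Viability read by CellTiter-Glo luminescence after 10 min at room temperature; IC50 calculated. H1299 lines carry Tet-One inducible p53 mutant constructs introduced by lentiviral transduction.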
Background: Cellular ATP, detected with luciferase, serves as a proxy for viable cell number.

The test system of a further test is H1299 p53 R273H. The test can be described thus: Cell Proliferation Assay (CellTiter-Glo, CTG), H1299 p53 R273H (NClH1299-inducible p53 R273H). As to conditions: Homo sapiens, NCI-H1299, 120 h, CellTiter-Glo, 5 days. In kind it is cell-based. The essentials:
as §1

Where [3] appears, read: thermal shift, read-out: TSA P53 Y220C dTM (10 uM).
[4] abbreviates: 10 uM tool compound as positive control.
Setting [5] is: p53 Y220C, read-out: TSA P53 Y220C dTM.
Setting [6] is: NClH1299-inducible p53 Y220C cells.
[7] abbreviates: NClH1299-inducible p53 R273H cells.

Broadly, the Kd is a measure of binding affinity in units of concentration. As usually defined, the Emax is the size of the effect at its maximum, as opposed to the concentration needed. Broadly, the AC50 is the concentration giving half of the maximal activity seen. As a reminder, the IC50 is the concentration that inhibits the measured activity by half. Read a low IC50 as higher potency. As for `COc1cc(S(C)(=O)=O)ccc1NCC#Cc1nc2c(N[C@@H]3CCNC[C@@H]3F)cccn2c1SC(F)(F)F` [Example 83], the dissociation constant (Kd) in test [1] (kinetic KD) was below 10 nM. The ΔTm at 10 µM in test [2] (setting [3]) is at least 10 °C. Moreover, the ΔTm at 100 µM in test [2] (thermal shift) was at least 10 °C. In addition, at p53 Y220C (setting [4]), the maximal response (Emax) lay within 70 to 80%. Also, the AC50 at p53 Y220C was below 750 nM. Further, the IC50 with NUGC3 p53 Y220C (NUGC3 p53 Y220C) was below 750 nM; in the test on H1299 p53 Y220C (H1299 p53 Y220C), below 750 nM; in the test with H1299 p53 R273H (H1299 p53 R273H), 5000 to 8000 nM.

With `CNC(=O)c1ccc(OC)c(NCC#Cc2nc3c(N[C@@H]4C[C@H]5CC[C@@H]([C@@H]4F)N5C)cccn3c2SC(F)(F)F)c1` [Example 199], the dissociation constant Kd in test [1] (kinetic KD) was below 10 nM. Besides, the ΔTm at 10 µM in test [2] (setting [3]) was at least 10 °C. Moreover, in test [2] (thermal shift), the ΔTm at 100 µM is at least 10 °C. This compound came in with an Emax at p53 Y220C (setting [4]) of 70 to 80%. For the same compound, the AC50 on p53 Y220C was below 750 nM. In addition, the values for the concentration for half-maximal inhibition (IC50) with NUGC3 p53 Y220C (NUGC3 p53 Y220C), with H1299 p53 Y220C (H1299 p53 Y220C) and in the test with H1299 p53 R273H (H1299 p53 R273H) were below 750 nM, below 750 nM and below 5000 nM, respectively.

Take `CNC(=O)c1ccc(NCC#Cc2nc3c(NC4CCN(C)CC4)cc(N)cn3c2CC(F)(F)F)c(OC)c1` [Example 40, 4-[(3-{6-amino-8-[(1-methylpiperidin-4-yl)amino]-3-(2,2,2-trifluoroethyl)imidazo[1,2-a]pyridin-2-yl}prop-2-yn-1-yl)amino]-3-methoxy-N-methylbenzamide]: in test [1] (kinetic KD), the dissociation constant Kd lay in the range of 10 to 100 nM. The ΔTm at 100 µM in test [2] (thermal shift) is 5 to 10 °C. At p53 Y220C (setting [4]), the maximum response (Emax) is below 70%. For the same compound, the concentration at half-maximal activity (AC50) on p53 Y220C was above 3000 nM. The concentration for half-maximal inhibition (IC50) is above 3000 nM with NUGC3 p53 Y220C (NUGC3 p53 Y220C), above 3000 nM in the test on H1299 p53 Y220C (H1299 p53 Y220C) and at least 10000 nM in the test on H1299 p53 R273H (H1299 p53 R273H).

Regarding `CNC(=O)c1ccc(NCC#Cc2nc3c(N[C@@H]4CCN(C)C[C@@H]4F)cc(F)cn3c2SC(F)(F)F)c(OC)c1` [Example 180], the dissociation constant (Kd) in test [1] (kinetic KD) is below 10 nM. The ΔTm at 10 µM in test [2] (setting [3]) was at least 10 °C. The ΔTm at 100 µM in test [2] (thermal shift) is at least 10 °C. At p53 Y220C (setting [4]), the maximum response (Emax) was in the range of 80 to 90%. The half-maximal activity concentration (AC50) at p53 Y220C is below 750 nM. Moreover, the values for the IC50 with NUGC3 p53 Y220C (NUGC3 p53 Y220C), with H1299 p53 Y220C (H1299 p53 Y220C) and in the test with H1299 p53 R273H (H1299 p53 R273H) were 750 to 1500 nM, below 750 nM and 5000 to 8000 nM, respectively.

Consider `CNC(=O)c1ccc(OC)c(NCC#Cc2nc3c(N[C@@H]4CCN(C)C[C@@H]4F)cc(F)cn3c2SC(F)(F)F)c1` [Example 154, 3-{[3-(6-fluoro-8-{[(3S,4R)-3-fluoro-1-methylpiperidin-4-yl]amino}-3-[(trifluoromethyl)sulfanyl]imidazo[1,2-a]pyridin-2-yl)prop-2-yn-1-yl]amino}-4-methoxy-N-methylbenzamide], for which, in test [1] (kinetic KD), the equilibrium dissociation constant (Kd) was below 10 nM. In addition, in test [2] (setting [3]), the ΔTm at 10 µM was at least 10 °C. In addition, in test [2] (thermal shift), the ΔTm at 100 µM is at least 10 °C. The same compound came in with an Emax at p53 Y220C (setting [4]) of 70 to 80%. The AC50 at p53 Y220C was below 750 nM. The half-inhibitory concentration (IC50) in the test on NUGC3 p53 Y220C (NUGC3 p53 Y220C) was below 750 nM; in the test with H1299 p53 Y220C (H1299 p53 Y220C) it was below 750 nM; in the test on H1299 p53 R273H (H1299 p53 R273H), below 5000 nM.

As to `CNC(=O)c1ccc(Cl)c(NCC#Cc2nc3c(N[C@@H]4CCN(C)C[C@@H]4F)cccn3c2SC(F)(F)F)c1` [Example 312], the Kd in test [1] was below 10 nM. In test [2] (setting [5]), the ΔTm at 10 µM is at least 10 °C. Also, the half-maximal activity concentration (AC50) on p53 Y220C (AC50) is below 750 nM. In addition, the maximum response (Emax) at p53 Y220C (Emax) is above 90%. Besides, the concentration for half-maximal inhibition (IC50) in the test with NUGC3 p53 Y220C (NUGC3 cells) is below 750 nM; in the test with H1299 p53 Y220C (setting [6]) it was below 750 nM; in the test with H1299 p53 R273H (setting [7]), 5000 to 8000 nM.

With `CCOc1cc(C(=O)NC)ccc1NCC#Cc1nc2c(N[C@@H]3CCN(C)C[C@@H]3F)cccn2c1CC(F)(F)F` [Example 59, 3-ethoxy-4-{[3-(8-{[(3S,4R)-3-fluoro-1-methylpiperidin-4-yl]amino}-3-(2,2,2-trifluoroethyl)imidazo[1,2-a]pyridin-2-yl)prop-2-yn-1-yl]amino}-N-methylbenzamide], in test [1] (kinetic KD), the Kd was below 10 nM. Also, the ΔTm at 100 µM in test [2] (thermal shift) lay in the range of 5 to 10 °C. The same compound registered a maximum response (Emax) on p53 Y220C (setting [4]) of 70 to 80%. In addition, on p53 Y220C, the half-maximal activity concentration (AC50) was in the range of 1500 to 3000 nM. Besides, the values for the IC50 in the test on NUGC3 p53 Y220C (NUGC3 p53 Y220C), in the test on H1299 p53 Y220C (H1299 p53 Y220C) and in the test with H1299 p53 R273H (H1299 p53 R273H) were 750 to 1500 nM, 750 to 1500 nM and at least 10000 nM, respectively.

For the compound `COc1ccc(C(=O)NC[C@H](C)O)cc1NCC#Cc1cc2c(N[C@@H]3CCN(C)C[C@@H]3F)nccn2c1SC(F)(F)F` [Example 358], the Kd in test [1] was below 10 nM. Besides, in test [2] (setting [5]), the ΔTm at 10 µM was at least 10 °C. Further, on p53 Y220C (AC50), the concentration at half-maximal activity (AC50) is below 750 nM. The Emax on p53 Y220C (Emax) is above 90%. In addition, the IC50 was below 750 nM with NUGC3 p53 Y220C (NUGC3 cells), below 750 nM with H1299 p53 Y220C (setting [6]) and at least 10000 nM in the test on H1299 p53 R273H (setting [7]).
